Measured values: article PMC6149861, “Identification, In Vitro Testing and Molecular Docking Studies of Microginins’ Mechanism of Angiotensin-Converting Enzyme Inhibition” (Molecules : A Journal of Synthetic Chemistry and Natural …, 2017)
Where two headings read alike, the source gives them in different places.

System: angiotensin-converting enzyme (ACE; EC. 3.4.15.1)
Format: biochemical
Details: for ACE inhibitory rate: HHL substrate, pH 8.3, 37 °C, HPLC-DAD 226 nm, mean ± SEM of three repeats
Experimental: The ACE inhibiting capability was evaluated according to the method described by Wang et al. ([14], which employs the hippuryl-histidilleucina tripeptide (Hip-His-Leu or HHL) as the substrate and evaluates the formation of hippuric acid (HA) by liquid chromatography (HPLC-DAD). Briefly, the commercial enzyme ACE and the substrate HHL (Sigma-Aldrich®) were dissolved in borate buffer (NaOH and boric acid) 100 mmol·L^−1, pH 8.3, supplemented with 300 mmol·L^−1 NaCl; their concentrations were 0.2 U/mL and 5 mmol·L^−1, respectively. Meanwhile, HA and captopril (standard ACE inhibitor) were dissolved in distilled water. The enzyme was pre-incubated in the presence or absence of inhibitor (isolated microginins or captopril) for […] at 37 °C, and the reaction was initiated by addition of substrate. After 30 min, the reaction was stopped by adding 250 μL of hydrochloric acid, and the sample was directly injected into the chromatographic system. […] After 5 min, the substrate was added to start the reaction.
The inhibitory rate was calculated, according to Wang et al., by I% = (A − B)/A × 100%; where A is the peak area of HA without adding ACE inhibitors; and B is the peak area of HA with the addition of ACE inhibitors. All data presented are the average of three repeats; the data are presented as means ± SEM.

Row | Molecule | ACE inhibition (in words) (IC50-based comparison with other microginins) | ACE inhibitory rate (microginin 800 µg·mL^−1) | ACE inhibitory rate (captopril 0.8 µM)
1 | MeAhda-L-Val-L-Leu-L-HTyr-L-Tyr [MG 770] | efficiently inhibits ACE, with activity comparable to that of other previously described microginins | 92.15 ± 2.76% | –
2 | C[C@H](CS)C(=O)N1CCC[C@H]1C(=O)O [captopril, reference compound] | – | – | 88.25 ± 1.19%
